Assays:
[1] = target: T1, Human PDGFRα, cytoplasmic domain (GST-PDGFRα) (Homo sapiens, UniProt P16234); test: Human PDGFRα biochemical inhibition assay (off-chip Mobility Shift Assay)
T1 construct: made in house

[2] = target: T2, Human PDGFRβ, cytoplasmic domain (GST-PDGFRβ) (Homo sapiens, UniProt P09619); test: Human PDGFRβ biochemical inhibition assay (off-chip Mobility Shift Assay)
T2 construct: made in house
How it was run: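 GST-tagged cytoplasmic domain (aa 557-1106) from baculovirus was incubated 1 h at room temperature with compound, CSKtide, ATP at Km and Mg²⁺ in HEPES buffer, pH 7.5. Phosphorylated and unphosphorylated peptide were separated by off-chip mobility shift, and the product ratio P/(P+S) gave percent inhibition.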

T1 sequence (P16234 550-1089 T674I): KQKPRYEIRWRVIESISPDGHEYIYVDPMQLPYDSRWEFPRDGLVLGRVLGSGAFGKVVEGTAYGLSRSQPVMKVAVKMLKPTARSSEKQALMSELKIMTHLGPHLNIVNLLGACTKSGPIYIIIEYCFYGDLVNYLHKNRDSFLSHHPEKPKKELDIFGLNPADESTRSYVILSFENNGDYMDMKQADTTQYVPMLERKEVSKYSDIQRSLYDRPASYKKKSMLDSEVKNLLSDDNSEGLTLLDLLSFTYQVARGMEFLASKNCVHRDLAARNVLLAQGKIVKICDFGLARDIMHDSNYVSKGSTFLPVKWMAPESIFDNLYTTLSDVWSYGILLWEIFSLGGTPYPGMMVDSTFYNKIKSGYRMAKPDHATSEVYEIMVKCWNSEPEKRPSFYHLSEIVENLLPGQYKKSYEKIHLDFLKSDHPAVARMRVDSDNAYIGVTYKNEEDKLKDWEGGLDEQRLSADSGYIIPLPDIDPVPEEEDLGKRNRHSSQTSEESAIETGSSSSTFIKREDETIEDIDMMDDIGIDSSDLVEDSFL
T2 sequence (P09619 with tags, fused parts or gaps): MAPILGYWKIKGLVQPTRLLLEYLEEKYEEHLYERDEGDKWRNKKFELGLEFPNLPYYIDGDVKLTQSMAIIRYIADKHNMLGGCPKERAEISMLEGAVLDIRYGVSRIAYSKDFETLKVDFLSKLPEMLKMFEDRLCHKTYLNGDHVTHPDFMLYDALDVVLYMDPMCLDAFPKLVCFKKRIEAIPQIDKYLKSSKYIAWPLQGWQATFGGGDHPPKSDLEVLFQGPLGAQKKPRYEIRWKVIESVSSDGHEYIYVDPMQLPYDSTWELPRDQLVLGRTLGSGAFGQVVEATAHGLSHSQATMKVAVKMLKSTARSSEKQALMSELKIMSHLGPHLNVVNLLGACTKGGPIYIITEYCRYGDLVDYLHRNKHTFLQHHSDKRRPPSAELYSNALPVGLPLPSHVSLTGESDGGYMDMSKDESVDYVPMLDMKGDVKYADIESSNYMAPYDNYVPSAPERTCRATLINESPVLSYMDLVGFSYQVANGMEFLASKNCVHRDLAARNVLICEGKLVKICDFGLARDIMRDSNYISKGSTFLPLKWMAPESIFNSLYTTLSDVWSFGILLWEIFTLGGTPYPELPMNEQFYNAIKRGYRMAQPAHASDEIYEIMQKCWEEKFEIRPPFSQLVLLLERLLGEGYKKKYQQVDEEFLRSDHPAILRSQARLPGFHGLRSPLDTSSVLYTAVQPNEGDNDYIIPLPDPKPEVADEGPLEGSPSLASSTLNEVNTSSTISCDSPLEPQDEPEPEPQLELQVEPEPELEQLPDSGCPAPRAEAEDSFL

SMILES | IC50 [1] [nM] | IC50 [2] [nM]
C[C@H](Nc1cnc2cnn(C)c2n1)c1cccc(NC(=O)c2cc(C(C)(C)C)nn2C)c1 [Compound 159, (S)-3-(tert-butyl)-1-methyl-N-(3-(1-((1-methyl-1H-pyrazolo[3,4-b]pyrazin-6-yl)amino)ethyl)phenyl)-1H-pyrazole-5-carboxamide] | < 300 | < 300
C[C@H](Nc1cnc2cnn(C)c2n1)c1cccc(NC(=O)c2cc(C(F)(F)F)n(C)n2)c1 [Compound 164, (S)-1-methyl-N-(3-(1-((1-methyl-1H-pyrazolo[3,4-b]pyrazin-6-yl)amino)ethyl)phenyl)-5-(trifluoromethyl)-1H-pyrazole-3-carboxamide] | < 300 | < 300
CCn1cc2ncc(N[C@@H](C)c3cccc(NC(=O)c4ccc(CN5[C@@H]6CC[C@H]5CN(C)C6)c(C)c4)c3)nc2n1 [Compound 475, N-(3-((S)-1-((2-ethyl-2H-pyrazolo[3,4-b]pyrazin-6-yl)amino)ethyl)phenyl)-3-methyl-4-(((1R,5S)-3-methyl-3,8-diazabicyclo[3.2.1]octan-8-yl)methyl)benzamide] | < 300 | < 300
C[C@H](Nc1cnc2cnn(C)c2n1)c1cccc(NC(=O)c2ccc(Cl)s2)c1 [Compound 135, (S)-5-chloro-N-(3-(1-((1-methyl-1H-pyrazolo[3,4-b]pyrazin-6-yl)amino)ethyl)phenyl)thiophene-2-carboxamide] | < 300 | < 300
CC(C)c1cc(C(=O)Nc2cccc([C@H](C)Nc3cnc4cnn(C)c4n3)c2)nn1C [Compound 162, (S)-5-isopropyl-1-methyl-N-(3-(1-((1-methyl-1H-pyrazolo[3,4-b]pyrazin-6-yl)amino)ethyl)phenyl)-1H-pyrazole-3-carboxamide] | < 300 | < 300
C[C@H](Nc1cnc2cnn(C)c2n1)c1cccc(NC(=O)c2cnc3ccsc3c2)c1 [Compound 49, (S)-N-(3-(1-((1-methyl-1H-pyrazolo[3,4-b]pyrazin-6-yl)amino)ethyl)phenyl) thieno[3,2-b]pyridinc-6-carboxamide] | < 300 | < 300
CSc1ccc(C(=O)Nc2cccc([C@H](C)Nc3cnc4cnn(C)c4n3)c2)cc1C [Compound 222, (S)-3-methyl-N-(3-(1-((1-methyl-1H-pyrazolo[3,4-b]pyrazin-6-yl)amino)ethyl)phenyl)-4-(methylthio)benzamide] | < 300 | < 300
C[C@H](Nc1cnc2[nH]cc(-c3cnn(C)c3)c2n1)c1cccc(NC(=O)c2cnc(C3CC3)s2)c1 [Compound 578, (S)-2-cyclopropyl-N-(3-(1-((7-(1-methyl-1H-pyrazol-4-yl)-5H-pyrrolo[2,3-b]pyrazin-2-yl)amino)ethyl)phenyl)thiazole-5-carboxamide] | < 300 | < 300
C[C@H](Nc1cnc2cnn(C)c2n1)c1cccc(NC(=O)c2ccc3c(c2)CCCO3)c1 [Compound 71, (S)-N-(3-(1-((1-methyl-1H-pyrazolo[3,4-b]pyrazin-6-yl)amino)ethyl)phenyl)chromane-6-carboxamide] | < 300 | < 300
COc1ccc(C(=O)Nc2cccc([C@H](C)Nc3cnc4[nH]cc(-c5cnn(C)c5)c4n3)c2)cn1 [Compound 566, (S)-6-methoxy-N-(3-(1-((7-(1-methyl-1H-pyrazol-4-yl)-5H-pyrrolo[2,3-b]pyrazin-2-yl)amino)ethyl)phenyl) nicotinamide] | < 300 | < 300
CCn1ncc2ncc(N[C@@H](C)c3cccc(NC(=O)c4cncc(C)c4)c3)cc21 [Compound 7] | < 300 | ≥ 1000
C[C@H](Nc1cnc2[nH]ccc2n1)c1cc(NC(=O)c2ccc(OC(F)F)nc2)ccc1F [Compound 596, (S)-N-(3-(1-((5H-pyrrolo[2,3-b]pyrazin-2-yl)amino)ethyl)-4-fluorophenyl)-6-(difluoromethoxy)nicotinamide] | < 300 | < 300
COc1ccc(NC(=O)c2cncc(C)c2)cc1CNc1cnc2ccccc2n1 [Compound 43, N-(4-methoxy-3-((quinoxalin-2-ylamino)methyl)phenyl)-5-methylnicotinamide] | 300 to 1000 | ≥ 1000
Cc1cc(C(=O)Nc2cccc([C@H](C)Nc3cnc4cnn(C)c4n3)c2)ccc1CN1CCSCC1 [Compound 237, (S)-3-methyl-N-(3-(1-((1-methyl-1H-pyrazolo[3,4-b]pyrazin-6-yl)amino)ethyl)phenyl)-4-(thiomorpholinomethyl) benzamide] | < 300 | < 300
Cc1c[nH]c2ncc(N[C@@H](C)c3cccc(NC(=O)c4cnc(C5CC5)s4)c3)nc12 [Compound 571, (S)-2-cyclopropyl-N-(3-(1-((7-methyl-5H-pyrrolo[2,3-b]pyrazin-2-yl)amino)ethyl)phenyl)thiazole-5-carboxamide] | < 300 | < 300
Cc1cncc(C(=O)Nc2cccc([C@H](C)Nc3cnc4cccnc4n3)c2)c1 [Compound 5, (S)-5-methyl-N-(3-(1-(pyrido[2,3-b]pyrazin-3-ylamino)ethyl)phenyl) nicotinamide] | < 300 | 300 to 1000
Cc1cc(C(=O)Nc2cccc([C@H](C)Nc3cnc4cnn(C)c4n3)c2)ccc1CN1CCOCC1 [Compound 209, (S)-3-methyl-N-(3-(1-((1-methyl-1H-pyrazolo[3,4-b]pyrazin-6-yl)amino)ethyl)phenyl)-4-(morpholinomethyl) benzamide] | < 300 | < 300
C[C@H](Nc1cnc2cnn(C)c2n1)c1cccc(NC(=O)c2cncc(O)c2)c1 [Compound 241, (S)-5-hydroxy-N-(3-(1-((1-methyl-1H-pyrazolo[3,4-b]pyrazin-6-yl)amino)ethyl)phenyl)nicotinamide] | < 300 | 300 to 1000

Other lines, results leading:

IC50 [1] [nM] | IC50 [2] [nM] | SMILES
< 300 | < 300 | CCn1cc2ncc(N[C@@H](C)c3cc(NC(=O)Cc4ccc(F)c(C)n4)ccc3C)nc2n1 [Compound 675, (S)-N-(3-(1-((2-ethyl-2H-pyrazolo[3,4-b]pyrazin-6-yl)amino)ethyl)-4-methylphenyl)-2-(5-fluoro-6-methylpyridin-2-yl)acetamide]
300 to 1000 | 300 to 1000 | CCn1cc2ncc(N[C@@H](C)c3cccc(NC(=O)c4ccc(C#N)cc4)c3)nc2n1 [Compound 346, (S)-4-cyano-N-(3-(1-((2-ethyl-2H-pyrazolo[3,4-b]pyrazin-6-yl)amino)ethyl)phenyl)benzamide]
300 to 1000 | ≥ 1000 | CCn1cc2ncc(N[C@@H](C)c3cccc(NC(=O)Cc4cncc(F)c4)c3)nc2n1 [Compound 623, (S)-N-(3-(1-((2-ethyl-2H-pyrazolo[3,4-b]pyrazin-6-yl)amino)ethyl)phenyl)-2-(5-fluoropyridin-3-yl)acetamide]
300 to 1000 | ≥ 1000 | CCn1cc2ncc(N[C@@H](C)c3cccc(NC(=O)Cc4ccc(C(C)C)cn4)c3)nc2n1 [Compound 709, (S)-N-(3-(1-((2-ethyl-2H-pyrazolo[3,4-b]pyrazin-6-yl)amino)ethyl)phenyl)-2-(5-isopropylpyridin-2-yl)acetamide]
< 300 | < 300 | CCn1cc2ncc(N[C@@H](C)c3cc(NC(=O)c4ccc(N5CCCC5)nc4)ccc3F)nc2n1 [Compound 320, (S)-N-(3-(1-((2-ethyl-2H-pyrazolo[3,4-b]pyrazin-6-yl)amino)ethyl)-4-fluorophenyl)-6-(pyrrolidin-1-yl)nicotinamide]
< 300 | < 300 | CCn1cc2ncc(N[C@@H](C)c3cccc(NC(=O)c4cnc(N5CCN(C)CC5)c(Cl)c4)c3)nc2n1 [Compound 421, (S)-5-chloro-N-(3-(1-((2-ethyl-2H-pyrazolo[3,4-b]pyrazin-6-yl)amino)ethyl)phenyl)-6-(4-methylpiperazin-1-yl) nicotinamide]
< 300 | 300 to 1000 | CCc1ccc(CC(=O)Nc2ccc(C)c([C@H](C)Nc3cnc4cn(CC)nc4n3)c2)nc1 [Compound 713, (S)-N-(3-(1-((2-ethyl-2H-pyrazolo[3,4-b]pyrazin-6-yl)amino)ethyl)-4-methylphenyl)-2-(5-ethylpyridin-2-yl) acetamide]
≥ 1000 | ≥ 1000 | CCn1cc2ncc(N[C@@H](C)c3cccc(NC(=O)Cc4ccncc4)c3)nc2n1 [Compound 644, (S)-N-(3-(1-((2-ethyl-2H-pyrazolo[3,4-b]pyrazin-6-yl)amino)ethyl)phenyl)-2-(pyridin-4-yl)acetamide]
≥ 1000 | ≥ 1000 | CCc1ccc(NC(=O)c2ccc(C(F)(F)F)nc2)cc1[C@H](C)Nc1cnc2cn(CC)nc2n1 [Compound 516, (S)-N-(4-ethyl-3-(1-((2-ethyl-2H-pyrazolo[3,4-b]pyrazin-6-yl)amino)ethyl)phenyl)-6-(trifluoromethyl)nicotinamide]
< 300 | < 300 | CCn1cc2ncc(N[C@@H](C)c3cccc(NC(=O)c4ccc(NC(C)C)c(C)c4)c3)nc2n1 [Compound 405, (S)-N-(3-(1-((2-ethyl-2H-pyrazolo[3,4-b]pyrazin-6-yl)amino)ethyl)phenyl)-4-(isopropylamino)-3-methylbenzamide]
< 300 | < 300 | CCn1cc2ncc(N[C@@H](C)c3cc(NC(=O)c4cnc5ccccc5c4)ccc3F)nc2n1 [Compound 63, (S)-N-(3-(1-((2-ethyl-2H-pyrazolo[3,4-b]pyrazin-6-yl)amino)ethyl)-4-fluorophenyl) quinoline-3-carboxamide]
< 300 | 300 to 1000 | CCn1cc2ncc(N[C@@H](C)c3cc(NC(=O)Cc4ccc(Cl)cn4)ccc3F)nc2n1 [Compound 650, (S)-2-(5-chloropyridin-2-yl)-N-(3-(1-((2-ethyl-2H-pyrazolo[3,4-b]pyrazin-6-yl)amino)ethyl)-4-fluorophenyl)acetamide]

Reference: patent US20230102554A1 (GB002, INC., priority 2019, published 2023)
